In PMC5885780, “Sub-nanosecond tryptophan radical deprotonation mediated by a protein-bound water cluster in class II DNA photolyases” (Chemical Science, 2017):

Columns and labels:
Test in all cases: UV/vis and transient absorption of co-purified protein-bound FAD
Type in all cases: binding
Details in all cases: pH 8.0, 10 mM Tris-HCl, 100 mM NaCl, 10% glycerol, 7 °C; oxidized FAD; free FAD removed by size-exclusion column
[1] = target: T1, MmCPDII (class II CPD photolyase) (Methanosarcina mazei, UniProt Q8PYK9, E387Q)
T1 construct: gene MM_0852; full-length from pET-28a-MmCPDII, E. coli BL21-Gold(DE3), NiNTA and SEC

[2] = target: T2, MmCPDII (class II CPD photolyase) (Methanosarcina mazei, UniProt Q8PYK9, Y345F)
T2 construct: gene MM_0852; full-length from pET-28a-MmCPDII, E. coli BL21-Gold(DE3), NiNTA and SEC

[3] = target: T3, MmCPDII (class II CPD photolyase) (Methanosarcina mazei, UniProt Q8PYK9)
T3 construct: gene MM_0852; full-length from pET-28a-MmCPDII, E. coli BL21-Gold(DE3), NiNTA and SEC

[4] = target: T4, MmCPDII (class II CPD photolyase) (Methanosarcina mazei, UniProt Q8PYK9, W388F)
T4 construct: gene MM_0852; full-length from pET-28a-MmCPDII, E. coli BL21-Gold(DE3), NiNTA and SEC

Cc1cc2nc3c(=O)[nH]c(=O)nc-3n(C[C@H](O)[C@H](O)[C@H](O)COP(=O)(O)OP(=O)(O)OC[C@H]3O[C@@H](n4cnc5c(N)ncnc54)[C@H](O)[C@@H]3O)c2cc1C [FAD]
UV/vis and transient absorption of co-purified protein-bound FAD [1]: Isolated MmCPDII photolyase (WT, as well as all mutants studied here) contains a fully oxidized FAD
UV/vis and transient absorption of co-purified protein-bound FAD [2]: Isolated MmCPDII photolyase (WT, as well as all mutants studied here) contains a fully oxidized FAD
UV/vis and transient absorption of co-purified protein-bound FAD [3]: Isolated MmCPDII photolyase (WT, as well as all mutants studied here) contains a fully oxidized FAD
UV/vis and transient absorption of co-purified protein-bound FAD [4]: Isolated MmCPDII photolyase (WT, as well as all mutants studied here) contains a fully oxidized FAD
